Assay results from US12187742B2 (XRAD Therapeutics, Inc., priority 2018, dated 2025).
pIC50: −log10 of the molar value.

Experiments:
ATM = ATM (Homo sapiens (Human), UniProt Q13315); test: ATM in Cell Western Assay (pKAP1 in etoposide-treated MCF-7 cells); assay type: cell-based; settings: pKAP1 in etoposide-treated MCF-7 cells
Outline: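 Cells received compounds in a 10-dose, 3-fold series from a 1 μM final top concentration, then 100 μM etoposide, for 1 hr at 37° C. They were then fixed with paraformaldehyde and permeabilized with 0.1% Triton X-100. After immunostaining, plates were scanned on an infrared imager.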

DNA-PK = DNA-PK (Homo sapiens (Human), UniProt P78527); test: DNA-PK Enzyme-Linked Immunosorbent Assay (phosphorylation of GST-p53 (1-101) peptide); assay type: biochemical; settings: ELISA, 20 μM ATP
Outline: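 ELISA with plate-bound GST-p53 (1-101) phosphorylated by DNA-PK (0.1 μg/mL final) with 20 μM ATP for 1 h at 25 °C. Compounds tested over 10 3-fold doses from 100 nM top final. Phospho-p53 Ser15 detected by antibody, HRP and TMB, absorbance at 450 nm.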

Chain of ATM (Q13315 whole entry): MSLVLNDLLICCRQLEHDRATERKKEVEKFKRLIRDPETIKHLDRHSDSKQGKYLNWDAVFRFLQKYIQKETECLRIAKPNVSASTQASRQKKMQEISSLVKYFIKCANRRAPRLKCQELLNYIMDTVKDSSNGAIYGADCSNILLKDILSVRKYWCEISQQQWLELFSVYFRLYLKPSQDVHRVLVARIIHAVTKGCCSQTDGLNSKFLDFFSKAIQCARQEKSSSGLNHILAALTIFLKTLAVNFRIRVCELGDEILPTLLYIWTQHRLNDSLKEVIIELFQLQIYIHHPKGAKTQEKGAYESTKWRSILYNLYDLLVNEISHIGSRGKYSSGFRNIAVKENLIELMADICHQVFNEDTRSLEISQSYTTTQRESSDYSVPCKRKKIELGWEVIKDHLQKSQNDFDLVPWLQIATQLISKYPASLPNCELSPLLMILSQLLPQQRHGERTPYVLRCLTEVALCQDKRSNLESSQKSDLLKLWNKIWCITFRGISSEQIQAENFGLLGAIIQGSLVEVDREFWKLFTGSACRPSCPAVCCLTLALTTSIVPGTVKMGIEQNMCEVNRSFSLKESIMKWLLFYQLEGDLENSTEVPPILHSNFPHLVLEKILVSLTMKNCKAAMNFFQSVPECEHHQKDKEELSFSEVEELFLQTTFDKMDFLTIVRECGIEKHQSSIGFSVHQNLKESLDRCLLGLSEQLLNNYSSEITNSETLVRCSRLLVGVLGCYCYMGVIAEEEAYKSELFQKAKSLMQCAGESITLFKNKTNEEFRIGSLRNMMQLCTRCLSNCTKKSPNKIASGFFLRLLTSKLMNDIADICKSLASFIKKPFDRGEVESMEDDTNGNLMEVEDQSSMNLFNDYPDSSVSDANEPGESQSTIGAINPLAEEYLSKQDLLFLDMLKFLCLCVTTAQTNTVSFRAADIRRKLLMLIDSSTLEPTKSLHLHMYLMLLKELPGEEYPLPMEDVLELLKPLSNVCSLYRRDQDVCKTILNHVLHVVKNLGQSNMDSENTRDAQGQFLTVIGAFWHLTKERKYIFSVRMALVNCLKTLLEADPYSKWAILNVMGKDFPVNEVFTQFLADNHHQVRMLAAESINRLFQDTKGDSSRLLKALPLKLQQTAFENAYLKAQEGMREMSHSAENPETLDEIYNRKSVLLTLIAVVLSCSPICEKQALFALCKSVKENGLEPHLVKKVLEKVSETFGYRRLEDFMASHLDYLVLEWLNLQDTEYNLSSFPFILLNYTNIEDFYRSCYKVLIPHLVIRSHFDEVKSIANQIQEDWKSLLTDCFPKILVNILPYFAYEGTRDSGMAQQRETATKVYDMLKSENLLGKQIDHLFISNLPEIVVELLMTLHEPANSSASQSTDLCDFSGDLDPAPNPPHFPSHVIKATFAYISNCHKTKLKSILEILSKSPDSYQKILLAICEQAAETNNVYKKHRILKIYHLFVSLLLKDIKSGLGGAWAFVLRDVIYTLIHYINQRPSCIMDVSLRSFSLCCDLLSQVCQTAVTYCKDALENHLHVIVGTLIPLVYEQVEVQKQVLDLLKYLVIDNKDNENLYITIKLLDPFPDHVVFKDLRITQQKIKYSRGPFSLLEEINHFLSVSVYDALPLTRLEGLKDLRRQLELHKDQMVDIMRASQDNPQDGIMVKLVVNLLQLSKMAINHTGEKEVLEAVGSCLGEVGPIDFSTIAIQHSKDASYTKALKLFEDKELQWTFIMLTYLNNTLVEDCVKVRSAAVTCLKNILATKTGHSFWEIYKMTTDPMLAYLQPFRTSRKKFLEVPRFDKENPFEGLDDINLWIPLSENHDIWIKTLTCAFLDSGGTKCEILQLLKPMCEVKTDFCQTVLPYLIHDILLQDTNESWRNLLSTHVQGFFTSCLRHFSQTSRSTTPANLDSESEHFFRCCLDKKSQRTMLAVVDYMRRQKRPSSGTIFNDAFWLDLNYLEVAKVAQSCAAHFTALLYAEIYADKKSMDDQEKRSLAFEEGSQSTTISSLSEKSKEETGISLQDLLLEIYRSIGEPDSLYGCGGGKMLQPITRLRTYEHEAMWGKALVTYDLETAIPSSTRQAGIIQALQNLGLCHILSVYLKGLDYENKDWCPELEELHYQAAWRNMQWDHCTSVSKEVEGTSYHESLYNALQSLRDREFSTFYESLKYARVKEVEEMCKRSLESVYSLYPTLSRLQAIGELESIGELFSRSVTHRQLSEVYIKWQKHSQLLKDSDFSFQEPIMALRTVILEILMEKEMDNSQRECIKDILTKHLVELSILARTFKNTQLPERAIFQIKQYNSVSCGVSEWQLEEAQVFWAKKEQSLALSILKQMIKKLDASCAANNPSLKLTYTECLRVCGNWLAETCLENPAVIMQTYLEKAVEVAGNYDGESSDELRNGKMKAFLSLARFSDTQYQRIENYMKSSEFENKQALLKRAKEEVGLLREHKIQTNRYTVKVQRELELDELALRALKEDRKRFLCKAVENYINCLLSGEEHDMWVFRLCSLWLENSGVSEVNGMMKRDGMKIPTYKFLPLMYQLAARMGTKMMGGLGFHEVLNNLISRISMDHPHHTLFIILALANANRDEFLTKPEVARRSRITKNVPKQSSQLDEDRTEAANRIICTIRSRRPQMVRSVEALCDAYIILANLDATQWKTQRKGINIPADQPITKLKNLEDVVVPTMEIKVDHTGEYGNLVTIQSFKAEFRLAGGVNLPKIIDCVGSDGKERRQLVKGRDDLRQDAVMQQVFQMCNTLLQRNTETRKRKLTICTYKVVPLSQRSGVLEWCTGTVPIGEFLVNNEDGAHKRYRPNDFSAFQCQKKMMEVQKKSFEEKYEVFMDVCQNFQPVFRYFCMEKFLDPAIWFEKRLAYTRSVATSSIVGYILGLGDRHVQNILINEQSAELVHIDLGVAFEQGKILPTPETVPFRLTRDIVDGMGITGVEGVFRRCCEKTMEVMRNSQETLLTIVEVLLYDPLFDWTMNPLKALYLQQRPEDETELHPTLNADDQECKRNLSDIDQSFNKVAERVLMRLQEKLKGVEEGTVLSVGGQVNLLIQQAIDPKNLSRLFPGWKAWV

Row | SMILES | pIC50 (ATM) | pIC50 (DNA-PK)
1 | CC(C)NCCOc1ncc(-c2cc3c4c(cnc3cc2F)N(C)C(=O)C42CN(c3ccc(OC(F)(F)F)cc3)C2)cc1NS(C)(=O)=O [Example 541, N-(5-(7′-Fluoro-3′-methyl-2′-oxo-1-(4-(trifluoromethoxy)phenyl)-2′,3′-dihydrospiro[azetidine-3,1′-pyrrolo[2,3-c]quinolin]-8′-yl)-2-(2-(isopropylamino)ethoxy)pyridin-3-yl)methanesulfonamide] | 7.00 to 9.00 | 7.00 to 9.00
2 | CC(C)NCCOc1ncc(-c2cc3c4c(cnc3cc2F)N(C)C(=O)C42CN(c3ccc(-c4ccccc4)cc3)C2)cc1NS(C)(=O)=O [Example 543, N-(5-(1-([1,1′-Biphenyl]-4-yl)-7′-fluoro-3′-methyl-2′-oxo-2′,3′-dihydrospiro[azetidine-3,1′-pyrrolo[2,3-c]quinolin]-8′-yl)-2-(2-(isopropylamino)ethoxy)pyridin-3-yl)methanesulfonamide] | 7.00 to 9.00 | 7.00 to 9.00
3 | CC(C)NCCOc1ncc(-c2cc3c4c(cnc3cc2F)N(C)C(=O)C42CN(c3ccc4c(c3)OCO4)C2)cc1NS(C)(=O)=O [Example 544, N-(5-(1-(Benzo[d][1,3]dioxol-5-yl)-7′-fluoro-3′-methyl-2′-oxo-2′,3′-dihydrospiro[azetidine-3,1′-pyrrolo[2,3-c]quinolin]-8′-yl)-2-(2-(isopropylamino)ethoxy)pyridin-3-yl)methanesulfonamide] | 7.00 to 9.00 | > 9.30
4 | CC(C)NCCOc1ncc(-c2cc3c4c(cnc3cc2F)N(C)C(=O)C42CN(c3ccc4c(c3)OCCO4)C2)cc1NS(C)(=O)=O [Example 545, N-(5-(1-(2,3-Dihydrobenzo[b][1,4]dioxin-6-yl)-7′-fluoro-3′-methyl-2′-oxo-2′,3′-dihydrospiro[azetidine-3,1′-pyrrolo[2,3-c]quinolin]-8′-yl)-2-(2-(isopropylamino)ethoxy)pyridin-3-yl)methanesulfonamide] | 7.00 to 9.00 | 9.00 to 9.30
5 | CN(C)CCCOc1ncc(-c2ccc3ncc4c(c3c2)C2(CC(F)(F)C2)C(=O)N4C)cc1NS(C)(=O)=O [Example 554, N-(5-(3,3-Difluoro-3′-methyl-2′-oxo-2′,3′-dihydrospiro[cyclobutane-1,1′-pyrrolo[2,3-c]quinolin]-8′-yl)-2-(3-(dimethylamino)propoxy)pyridin-3-yl)methanesulfonamide] | 7.00 to 9.00 | 7.00 to 9.00
